14 compounds from US20250339569A1, “CARBONIC ANHYDRASE IX LIGANDS” (priority 2021, published 2025) can be followed below.

Starred links: 1 amine or outer side, 2 acyl side, 3 side chain; linkers in the order of their positions; H or OH if unused. Positions of bridges follow the written chain, without caps; N, C: chain ends. Non-standard residues stand in square brackets, D forms with d. Residues, ends and D or L forms follow the SMILES beside them. *: point of attachment. Phe(3-NHCO(CH2)3SO2NH2) = N[C@@H](Cc1cccc(NC(=O)CCCS(N)(=O)=O)c1)C(=O)O; X57 = O=C(Cn1ccccc1=O)Nc1cccc(C[C@H](N[*:1])C(=O)[*:2])c1; DOTA = O=C(O)CN1CCN(CC(=O)O)CCN(CC(=O)*)CCN(CC(=O)O)CC1; Cyclopropanecarbonyl(1-CN) = N#CC1(C(=O)*)CC1; X7 = O=C([C@H](Cc1cccc(N[*:3])c1)N[*:1])[*:2]; Phe(4-NH2) = Nc1ccc(C[C@H](N)C(=O)O)cc1; X55 = O=C1Nc2ccc(C(=O)*)cc2S(=O)(=O)N1; mXylylene = c1cc(C[*:1])cc(C[*:2])c1; X49 = N#Cc1ccc(N2CCCN(*)CC2)c(F)c1; X36 = NS(=O)(=O)Cc1ccc(C(=O)*)cc1; X2 = O=C(CN1CCC(N[*:1])CC1)[*:2]; X60 = NC(=O)c1ccc(N2CC(N*)C2)cc1; tBuAla = CC(C)(C)C[C@H](N)C(=O)O; X1 = O=C(CN1CCN([*:1])CC1)[*:2]; X53 = Cc1cc2cc(CN*)ccc2[nH]c1=O; X71 = O=C1NC(=O)C(CC(=O)*)N1; Isovaleryl = CC(C)CC(=O)*; Fluoroacetyl = O=C(CF)*; X67 = CS(=O)(=O)CC(=O)* Where only a bound is given, the exact number is not on record here.

One experiment concerns the target T1, CAIX-expressing human HT-29 colorectal cancer cells (Homo sapiens, UniProt Q16790).
T1 construct: CAIX-expressing human HT-29 colorectal cancer cells; host or cells: HT-29 human colorectal cancer cells
The experiment in a line: FACS binding assay (IC50 determination, competition with tracer 3BP-2776 or 3BP-4149).
Conditions: not given
An outline of the steps: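 HT-29 cells in FACS buffer (PBS, 1% FCS) at 500.000 cells/ml were exposed to compounds competing with a labelled tracer, with biotinylated compounds detected by 1 μg/mL APC-streptavidin for 30 min on ice. APC/Cy5 median fluorescence was read by flow cytometry and IC50 derived by 4PL fit.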
Consider `CC(C)C[C@@H]1NC(=O)[C@H](Cc2ccc(NC(=O)CF)cc2)NC(=O)[C@H](CC(=O)O)NC(=O)[C@H]2CCCN2C(=O)[C@H](CCC(=O)O)NC(=O)[C@@H](NC(=O)[C@H](Cc2ccc(O)cc2)NC(=O)[C@@H](NC(=O)CN2CCC(NC(=O)CN3CCN(CC(=O)O)CCN(CC(=O)O)CCN(CC(=O)O)CC3)CC2)C(C)C)CSCc2cccc(c2)CSC[C@@H](C(N)=O)NC(=O)[C@H](CO)NC(=O)[C@H](Cc2c[nH]c3ccccc23)NC(=O)[C@H]([C@@H](C)O)NC1=O` [3BP-4358] ({DOTA}-[X2]VYCE[dP]D[Phe(4-NH2)](Fluoroacetyl)LTWSC-NH2; linker 4-13 via mXylylene), for which the IC50 lay within 100 to 794 nM.

Still in this experiment, the particulars now being: FACS binding assay, HT-29 cells, competition with tracer 3BP-2776 (10 nM, biotin-labeled), 4° C., 1 hour; read-out: pIC50 category (activity) (converted).
With `C[C@@H](O)[C@@H]1NC(=O)[C@H](CC(C)(C)C)NC(=O)[C@H](Cc2cccc(NC(=O)CCCS(N)(=O)=O)c2)NC(=O)[C@H](CC(=O)O)NC(=O)[C@H]2CCCN2C(=O)[C@H](CCC(=O)O)NC(=O)[C@@H](NC(=O)[C@H](Cc2ccc(O)cc2)NC(=O)CN2CCN(C(=O)CN3CCN(CC(=O)O)CCN(CC(=O)O)CCN(CC(=O)O)CC3)CC2)CSCc2cccc(c2)CSC[C@@H](C(N)=O)NC(=O)[C@H](CO)NC(=O)[C@H](Cc2c[nH]c3ccccc23)NC1=O` [3BP-4449] ({DOTA}-[X1]YCE[dP]D[Phe(3-NHCO(CH2)3SO2NH2)][tBuAla]TWSC-NH2; linker 3-12 via mXylylene), the IC50 was less than 10 nM. As for `CC(C)C[C@@H]1NC(=O)[C@H](Cc2cccc(NC(=O)CCCS(N)(=O)=O)c2)NC(=O)[C@H](CC(=O)O)NC(=O)[C@H]2CCCN2C(=O)[C@H](CCC(=O)O)NC(=O)[C@@H](NC(=O)[C@H](CO)NC(=O)CN2CCN(C(=O)CN3CCN(CC(=O)O)CCN(CC(=O)O)CCN(CC(=O)O)CC3)CC2)CSCc2cccc(c2)CSC[C@@H](C(N)=O)NC(=O)[C@H](CO)NC(=O)[C@H](Cc2c[nH]c3ccccc23)NC(=O)[C@H]([C@@H](C)O)NC1=O` [3BP-4450] ({DOTA}-[X1]SCE[dP]D[Phe(3-NHCO(CH2)3SO2NH2)]LTWSC-NH2; linker 3-12 via mXylylene), the IC50 is less than 10 nM. Same read-out and setting: in the case of `CC(C)C[C@@H]1NC(=O)[C@H](Cc2cccc(NC(=O)CCCS(N)(=O)=O)c2)NC(=O)[C@H](CC(=O)O)NC(=O)[C@H]2CCCN2C(=O)[C@H](CCC(=O)O)NC(=O)[C@@H](NC(=O)[C@H](CCCNC(=N)N)NC(=O)CN2CCN(C(=O)CN3CCN(CC(=O)O)CCN(CC(=O)O)CCN(CC(=O)O)CC3)CC2)CSCc2cccc(c2)CSC[C@@H](C(N)=O)NC(=O)[C@H](CO)NC(=O)[C@H](Cc2c[nH]c3ccccc23)NC(=O)[C@H]([C@@H](C)O)NC1=O` [3BP-4451] ({DOTA}-[X1]RCE[dP]D[Phe(3-NHCO(CH2)3SO2NH2)]LTWSC-NH2; linker 3-12 via mXylylene) it was less than 10 nM.

Still in this experiment, the particulars now being: FACS binding assay, HT-29 cells, competition with tracer 3BP-4149 (3 nM, Cy5-labeled), 4° C., 1 hour; read-out: pIC50 category (activity) (converted).
Regarding `CC(C)CC(=O)Nc1ccc(C[C@@H]2NC(=O)[C@H](CC(=O)O)NC(=O)[C@H]3CCCN3C(=O)[C@H](CCC(=O)O)NC(=O)[C@@H](NC(=O)[C@H](Cc3ccc(O)cc3)NC(=O)[C@@H](NC(=O)CN3CCC(NC(=O)CN4CCN(CC(=O)O)CCN(CC(=O)O)CCN(CC(=O)O)CC4)CC3)C(C)C)CSCc3cccc(c3)CSC[C@@H](C(N)=O)NC(=O)[C@H](CO)NC(=O)[C@H](Cc3c[nH]c4ccccc34)NC(=O)[C@H]([C@@H](C)O)NC(=O)[C@H](CC(C)C)NC2=O)cc1` [3BP-4348] ({DOTA}-[X2]VYCE[dP]D[Phe(4-NH2)](Isovaleryl)LTWSC-NH2; linker 4-13 via mXylylene), the IC50 was 100 to 794 nM. As for `CC(C)C[C@@H]1NC(=O)[C@H](Cc2ccc(NC(=O)C3(C#N)CC3)cc2)NC(=O)[C@H](CC(=O)O)NC(=O)[C@H]2CCCN2C(=O)[C@H](CCC(=O)O)NC(=O)[C@@H](NC(=O)[C@H](Cc2ccc(O)cc2)NC(=O)[C@@H](NC(=O)CN2CCC(NC(=O)CN3CCN(CC(=O)O)CCN(CC(=O)O)CCN(CC(=O)O)CC3)CC2)C(C)C)CSCc2cccc(c2)CSC[C@@H](C(N)=O)NC(=O)[C@H](CO)NC(=O)[C@H](Cc2c[nH]c3ccccc23)NC(=O)[C@H]([C@@H](C)O)NC1=O` [3BP-4357] ({DOTA}-[X2]VYCE[dP]D[Phe(4-NH2)](Cyclopropanecarbonyl(1-CN))LTWSC-NH2; linker 4-13 via mXylylene), the IC50 is 100 to 794 nM. The same measure, in the same setting: to `CC(C)C[C@@H]1NC(=O)[C@H](Cc2ccc(NC(=O)CS(C)(=O)=O)cc2)NC(=O)[C@H](CC(=O)O)NC(=O)[C@H]2CCCN2C(=O)[C@H](CCC(=O)O)NC(=O)[C@@H](NC(=O)[C@H](Cc2ccc(O)cc2)NC(=O)[C@@H](NC(=O)CN2CCC(NC(=O)CN3CCN(CC(=O)O)CCN(CC(=O)O)CCN(CC(=O)O)CC3)CC2)C(C)C)CSCc2cccc(c2)CSC[C@@H](C(N)=O)NC(=O)[C@H](CO)NC(=O)[C@H](Cc2c[nH]c3ccccc23)NC(=O)[C@H]([C@@H](C)O)NC1=O` [3BP-4360] ({DOTA}-[X2]VYCE[dP]D[Phe(4-NH2)](X67)LTWSC-NH2; linker 4-13 via mXylylene) belongs 100 to 794 nM; to `CC(C)C[C@@H]1NC(=O)[C@H](Cc2cccc(NC(=O)Cn3ccccc3=O)c2)NC(=O)[C@H](CC(=O)O)NC(=O)[C@H]2CCCN2C(=O)[C@H](CCC(=O)O)NC(=O)[C@@H](NC(=O)[C@H](Cc2ccc(O)cc2)NC(=O)[C@@H](NC(=O)CN2CCC(NC(=O)CN3CCN(CC(=O)O)CCN(CC(=O)O)CCN(CC(=O)O)CC3)CC2)C(C)C)CSCc2cccc(c2)CSC[C@@H](C(N)=O)NC(=O)[C@H](CO)NC(=O)[C@H](Cc2c[nH]c3ccccc23)NC(=O)[C@H]([C@@H](C)O)NC1=O` [3BP-4370] ({DOTA}-[X2]VYCE[dP]D[X57]LTWSC-NH2; linker 4-13 via mXylylene), 10 to 79.4 nM.

In the case of `CC(C)C[C@@H]1NC(=O)[C@H](Cc2c[nH]c3ccccc23)NC(=O)[C@H](CCC(=O)NC2CN(c3ccc(C(N)=O)cc3)C2)NC(=O)[C@H]2CCCN2C(=O)[C@H](CCC(=O)O)NC(=O)[C@@H](NC(=O)[C@H](Cc2ccc(O)cc2)NC(=O)[C@@H](NC(=O)CN2CCC(NC(=O)CN3CCN(CC(=O)O)CCN(CC(=O)O)CCN(CC(=O)O)CC3)CC2)C(C)C)CSCc2cccc(c2)CSC[C@@H](C(N)=O)NC(=O)[C@H](CO)NC(=O)[C@H](Cc2c[nH]c3ccccc23)NC(=O)[C@H]([C@@H](C)O)NC1=O` [3BP-4388] ({DOTA}-[X2]VYCE[dP]E(X60)WLTWSC-NH2; linker 4-13 via mXylylene), the IC50 is 10 to 79.4 nM. The same measure, in the same setting: in the case of `CC(C)C[C@@H]1NC(=O)[C@H](Cc2c[nH]c3ccccc23)NC(=O)[C@H](CCC(=O)N2CCCN(c3ccc(C#N)cc3F)CC2)NC(=O)[C@H]2CCCN2C(=O)[C@H](CCC(=O)O)NC(=O)[C@@H](NC(=O)[C@H](Cc2ccc(O)cc2)NC(=O)[C@@H](NC(=O)CN2CCC(NC(=O)CN3CCN(CC(=O)O)CCN(CC(=O)O)CCN(CC(=O)O)CC3)CC2)C(C)C)CSCc2cccc(c2)CSC[C@@H](C(N)=O)NC(=O)[C@H](CO)NC(=O)[C@H](Cc2c[nH]c3ccccc23)NC(=O)[C@H]([C@@H](C)O)NC1=O` [3BP-4389] ({DOTA}-[X2]VYCE[dP]E(X49)WLTWSC-NH2; linker 4-13 via mXylylene) it was 10 to 79.4 nM.

Turning to `Cc1cc2cc(CNC(=O)CC[C@@H]3NC(=O)[C@H]4CCCN4C(=O)[C@H](CCC(=O)O)NC(=O)[C@@H](NC(=O)[C@H](Cc4ccc(O)cc4)NC(=O)[C@@H](NC(=O)CN4CCC(NC(=O)CN5CCN(CC(=O)O)CCN(CC(=O)O)CCN(CC(=O)O)CC5)CC4)C(C)C)CSCc4cccc(c4)CSC[C@@H](C(N)=O)NC(=O)[C@H](CO)NC(=O)[C@H](Cc4c[nH]c5ccccc45)NC(=O)[C@H]([C@@H](C)O)NC(=O)[C@H](CC(C)C)NC(=O)[C@H](Cc4c[nH]c5ccccc45)NC3=O)ccc2[nH]c1=O` [3BP-4390] ({DOTA}-[X2]VYCE[dP]E(X53)WLTWSC-NH2; linker 4-13 via mXylylene), the IC50 is 10 to 79.4 nM. The same measure, in the same setting: in the case of `CC(C)C[C@@H]1NC(=O)[C@H](Cc2ccc(NC(=O)c3ccc(CS(N)(=O)=O)cc3)cc2)NC(=O)[C@H](CC(=O)O)NC(=O)[C@H]2CCCN2C(=O)[C@H](CCC(=O)O)NC(=O)[C@@H](NC(=O)[C@H](Cc2ccc(O)cc2)NC(=O)[C@@H](NC(=O)CN2CCC(NC(=O)CN3CCN(CC(=O)O)CCN(CC(=O)O)CCN(CC(=O)O)CC3)CC2)C(C)C)CSCc2cccc(c2)CSC[C@@H](C(N)=O)NC(=O)[C@H](CO)NC(=O)[C@H](Cc2c[nH]c3ccccc23)NC(=O)[C@H]([C@@H](C)O)NC1=O` [3BP-4399] ({DOTA}-[X2]VYCE[dP]D[Phe(4-NH2)](X36)LTWSC-NH2; linker 4-13 via mXylylene) it was 10 to 79.4 nM; in that of `CC(C)C[C@@H]1NC(=O)[C@H](Cc2cccc(NC(=O)c3ccc4c(c3)S(=O)(=O)NC(=O)N4)c2)NC(=O)[C@H](CC(=O)O)NC(=O)[C@H]2CCCN2C(=O)[C@H](CCC(=O)O)NC(=O)[C@@H](NC(=O)[C@H](Cc2ccc(O)cc2)NC(=O)[C@@H](NC(=O)CN2CCC(NC(=O)CN3CCN(CC(=O)O)CCN(CC(=O)O)CCN(CC(=O)O)CC3)CC2)C(C)C)CSCc2cccc(c2)CSC[C@@H](C(N)=O)NC(=O)[C@H](CO)NC(=O)[C@H](Cc2c[nH]c3ccccc23)NC(=O)[C@H]([C@@H](C)O)NC1=O` [3BP-4415] ({DOTA}-[X2]VYCE[dP]D[X7](X55)LTWSC-NH2; linker 4-13 via mXylylene), 100 to 794 nM.

With `CC(C)C[C@@H]1NC(=O)[C@H](Cc2ccc(NC(=O)CC3NC(=O)NC3=O)cc2)NC(=O)[C@H](CC(=O)O)NC(=O)[C@H]2CCCN2C(=O)[C@H](CCC(=O)O)NC(=O)[C@@H](NC(=O)[C@H](Cc2ccc(O)cc2)NC(=O)[C@@H](NC(=O)CN2CCC(NC(=O)CN3CCN(CC(=O)O)CCN(CC(=O)O)CCN(CC(=O)O)CC3)CC2)C(C)C)CSCc2cccc(c2)CSC[C@@H](C(N)=O)NC(=O)[C@H](CO)NC(=O)[C@H](Cc2c[nH]c3ccccc23)NC(=O)[C@H]([C@@H](C)O)NC1=O` (some centres unmarked) [3BP-4458] ({DOTA}-[X2]VYCE[dP]D[Phe(4-NH2)](X71)LTWSC-NH2; linker 4-13 via mXylylene), the IC50 was 10 to 79.4 nM.
